This is an account of results in US7728025B2, “2-heteroaryl-substituted benzimidazole derivative” (Banyu Pharmaceutical Co., Ltd., priority 2003, dated 2010).

In the assay the target is T1, recombinant human liver GK (Homo sapiens, UniProt P35557).
T1 construct: made in house; host or cells: E. coli
T1 sequence (P35557 1-466 isoform P35557-2): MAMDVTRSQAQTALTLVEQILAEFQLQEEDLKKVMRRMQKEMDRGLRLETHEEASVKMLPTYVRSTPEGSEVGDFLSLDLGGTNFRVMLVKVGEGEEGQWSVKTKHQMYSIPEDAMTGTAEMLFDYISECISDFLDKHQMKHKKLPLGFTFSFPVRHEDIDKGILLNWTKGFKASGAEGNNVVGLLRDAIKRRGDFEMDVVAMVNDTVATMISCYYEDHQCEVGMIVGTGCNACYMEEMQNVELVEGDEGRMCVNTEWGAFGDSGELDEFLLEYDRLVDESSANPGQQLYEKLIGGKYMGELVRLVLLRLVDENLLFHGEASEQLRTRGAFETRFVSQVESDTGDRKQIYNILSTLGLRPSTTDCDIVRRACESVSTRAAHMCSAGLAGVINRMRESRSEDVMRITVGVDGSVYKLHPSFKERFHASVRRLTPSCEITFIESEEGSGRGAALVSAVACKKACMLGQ
As to the kind of experiment: Glucokinase (GK) activation assay: Thio-NADH formation coupled with G6PDH, absorbance at 405 nm. Format: biochemical. Particulars: final glucose concentration 2.5 mM, 30° C.; for Emax: OD level of DMSO control set as 100%. The text has this:
The glucokinase activity may be determined not by directly measuring glucose-6-phosphate but by measuring the level of Thio-NADH, which is produced when a reporter enzyme, glucose-6-phosphate dehydrogenase produces phosphogluconolactone from glucose-6-phosphate, and based on the level, the degree of glucokinase activity of the compound tested may be determined.
In this assay, used was a recombinant human liver GK, which was expressed by E. coli as a FLAG fusion protein therein and was purified by […] M2 AFFINITY GEL (Sigma).
Using a 96-well plate, the assay was carried out at 30° C. 69 μl of an assay buffer (25 mM Hepes Buffer/pH=7.2, 2 mM MgCl2, 1 mM ATP, 0.5 mM TNAD, 1 mM dithiothreitol) was put into the plate, and 1 μl of a DMSO solution of the compound or DMSO alone as a control was added thereto. Next, 20 μl of an enzyme mixture (FLAG-GK, 20 U/ml G6PDH) cooled in ice was added to it, and 10 μl of a substrate, 25 mM glucose was added to it, and the reaction was initiated (final glucose concentration=2.5 mM).
After the start of the reaction, the increase in the absorbance at 405 nm was measured for 10 minutes at intervals of 30 seconds, and the increase for the first 5 minutes was used for evaluating the compound tested. FLAG-GK was added so that the absorbance increase after 5 minutes in the presence of 1% DMSO could be from 0.05 to 1.0.
The OD level of the DMSO control was set as 100%; and the OD level of the test compound at different concentrations was determined. From the OD level at each concentration, Emax (%) and EC50 (μM) were computed and used as the index of the GK-activating potency of the compound.

Each structure is given as a SMILES string.

For orientation: Emax means the greatest response seen or fitted, relative to the assay's reference. The term EC50 denotes the concentration that produces a half-maximal response. With `CC(=O)c1ccccc1Oc1cc2nc(-c3ccccn3)[nH]c2cc1Oc1ccc(C(=O)N(C)C)cc1` [Example 26, 5-(2-Acetyl-phenoxy)-6-(4-dimethylcarbamoyl-phenoxy)-2-pyridin-2-yl-1H-benzimidazole], the Emax came to 768% and the EC50 is 2.3 µM.
Consider `COc1ccccc1Oc1cc(Oc2cccnc2)cc2[nH]c(-c3ccccn3)nc12` [Example 67, 4-(2-Methoxy-phenoxy)-2-pyridin-2-yl-6-(pyridin-3-yloxy)-1H-benzimidazole], for which the Emax is 832% and the EC50 was determined as 1.4 µM.
